In ChEMBL document CHEMBL4385613, “Discovery of Conformational Control Inhibitors Switching off the Activated c-KIT and Targeting a Broad Range of Clinically Relevant c-KIT Mutants” (J Med Chem, 2019):
Calls of active or inactive are those of the source. No cut-off for these calls is given here.

Assays:
Mus musculus = experiment: Decrease in c-KIT phosphorylation in NOD-SCID mouse xenografted with human GIST430 cells harboring c-KIT exon 11 primary in-frame V560-L576 deletion mutant and exon 13 heterozygous secondary missense V654A mutant at 20 mg/kg, po measured after 8 hrs by immunoblotting analysis relative to control; assay type: functional
GIST430 = experiment: Antitumor activity against human GIST430 cells harboring c-KIT exon 11 primary in-frame V560-L576 deletion mutant and exon 13 heterozygous secondary missense V654A mutant xenografted in NOD-SCID mouse assessed as reduction in tumor size at 25, po administered for 2 weeks with 2 days rest after day 5 and measured thrice per week up to 14 days during compound dosing relative to control; assay type: functional; parameters: scale not given: the % may be the effect or the level left
[1] = target: Mast/stem cell growth factor receptor Kit (Homo sapiens, UniProt P10721, V560G); experiment: Inhibition of human c-KIT JM domain exon 11 V560G single mutant using poly (Glu,Tyr) 4:1 as substrate in presence of 33P-gamma-ATP by hotspot kinase assay
[2] = target: T1, Mast/stem cell growth factor receptor Kit (Homo sapiens, UniProt P10721); experiment: Inhibition of recombinant human N-terminal 6x-His-tagged c-KIT (547 to 935 residues)/(694 to 753 residues deletion) expressed in baculovirus infected Sf9 insect cells assessed as decrease in poly (Glu,Tyr) 4:1 phosphorylation measured after 150 mins in presence of ATP by ADP-glo based luminescence assay
[3] = target: T1, Mast/stem cell growth factor receptor Kit; experiment: Inhibition of ATP-activated recombinant human N-terminal 6x-His-tagged c-KIT (547 to 935 residues)/(694 to 753 residues deletion) expressed in baculovirus infected Sf9 insect cells assessed as decrease in poly (Glu,Tyr) 4:1 phosphorylation incubated for 30 mins followed by ATP addition and measured after 30 mins by Kinase Glo based luminescence assay
[4] = test system: Mast/stem cell growth factor receptor Kit (Homo sapiens), P10721 [V560G]; experiment: Inhibition of human c-KIT JM domain exon 11 V560G single mutant at 10 nM using poly (Glu,Tyr) 4:1 as substrate in presence of 33P-gamma-ATP by hotspot kinase assay relative to control
[5] = test system: Mast/stem cell growth factor receptor Kit (Homo sapiens), P10721 [V654A]; experiment: Inhibition of human c-KIT ATP binding domain exon 13 V654A single mutant at 10 nM using poly (Glu,Tyr) 4:1 as substrate in presence of 33P-gamma-ATP by hotspot kinase assay relative to control
[6] = test system: Mast/stem cell growth factor receptor Kit (Homo sapiens), P10721 [K642E]; experiment: Inhibition of human c-KIT ATP binding domain exon 13 K642E single mutant at 10 nM using poly (Glu,Tyr) 4:1 as substrate in presence of 33P-gamma-ATP by hotspot kinase assay relative to control
[7] = target: Mast/stem cell growth factor receptor Kit (Homo sapiens, UniProt P10721, T670I); experiment: Inhibition of human c-KIT ATP binding domain exon 14 T670I single mutant using poly (Glu,Tyr) 4:1 as substrate in presence of 33P-gamma-ATP by hotspot kinase assay
[8] = target: Mast/stem cell growth factor receptor Kit (Homo sapiens, UniProt P10721, D816V); experiment: Inhibition of human c-KIT A loop exon 17 D816V single mutant using poly (Glu,Tyr) 4:1 as substrate in presence of 33P-gamma-ATP by hotspot kinase assay
[9] = target: Mast/stem cell growth factor receptor Kit (Homo sapiens, UniProt P10721, D820E); experiment: Inhibition of human c-KIT A loop exon 17 D820E single mutant using poly (Glu,Tyr) 4:1 as substrate in presence of 33P-gamma-ATP by hotspot kinase assay
[10] = test system: Mast/stem cell growth factor receptor Kit (Homo sapiens), P10721 [A829P]; experiment: Inhibition of human c-KIT A loop exon 18 A829P single mutant at 100 nM using poly (Glu,Tyr) 4:1 as substrate in presence of 33P-gamma-ATP by hotspot kinase assay relative to control
[11] = target: Mast/stem cell growth factor receptor Kit (Homo sapiens, UniProt P10721, V559D/V654A); experiment: Inhibition of human c-KIT […] V559D/V654A double mutant using poly (Glu,Tyr) 4:1 as substrate in presence of 33P-gamma-ATP by hotspot kinase assay
[12] = target: Mast/stem cell growth factor receptor Kit (Homo sapiens, UniProt P10721, D816V/V560G); experiment: Inhibition of human c-KIT A loop exon 11/17 V560G/D816V double mutant using poly (Glu,Tyr) 4:1 as substrate in presence of 33P-gamma-ATP by hotspot kinase assay
[13] = test system: Mast/stem cell growth factor receptor Kit (Homo sapiens), P10721 [V560G,D816V]; experiment: Inhibition of human c-KIT A loop exon 11/17 V560G/D816V double mutant at 100 nM using poly (Glu,Tyr) 4:1 as substrate in presence of 33P-gamma-ATP by hotspot kinase assay relative to control
GIST48 = experiment: Antiproliferative activity against human GIST48 cells harboring c-KIT exon 11 homozygous primary missense V560D mutant and exon 17 heterozygous secondary D820A mutant assessed as reduction in cell viability by MTS assay; assay type: functional
[14] = Antiproliferative activity against human GIST48B cells assessed as reduction in cell viability by methylene blue staining based assay; assay type: functional
[15] = Antiproliferative activity against human GIST62 cells assessed as reduction in cell viability by methylene blue staining based assay; assay type: functional
[16] = test system: Mast/stem cell growth factor receptor Kit (Homo sapiens), P10721 [UNDEFINED MUTATION]; experiment: Inhibition of c-KIT V560-L576 deletion/V654A double mutant phosphorylation in human GIST430 cells assessed as decrease in phosphorylation of AKT at 10 to 100 nM measured after 24 to 72 hrs by Western blot analysis; assay type: cell-based
[17] = test system: Mast/stem cell growth factor receptor Kit (Homo sapiens), P10721 [UNDEFINED MUTATION]; experiment: Inhibition of c-KIT V560-L576 deletion/V654A double mutant phosphorylation in human GIST430 cells assessed as decrease in phosphorylation of MAPK at 10 to 100 nM measured after 24 to 72 hrs by Western blot analysis; assay type: cell-based
[18] = Cmax in ICR mouse at 10 mg/kg, po administered as single dose measured up to 24 hrs by LC-MS/MS analysis; assay type: ADME, organism-based; parameters: dose 10 mg/kg, route oral; details: in vivo
[19] = AUC in ICR mouse at 10 mg/kg, po administered as single dose measured up to 24 hrs by LC-MS/MS analysis; assay type: ADME, organism-based; parameters: dose 10 mg/kg, time < 24 hr, route oral; details: in vivo
[20] = Plasma clearance in ICR mouse at 2 mg/kg, iv administered as single dose measured up to 24 hrs by LC-MS/MS analysis; assay type: ADME, organism-based
[21] = test system: Mast/stem cell growth factor receptor Kit (Homo sapiens), P10721 [D816H]; details: at 100 nM
Description: Inhibition of human c-KIT A loop exon 17 D816H single mutant at 100 nM using poly (Glu,Tyr) 4:1 as substrate in presence of 33P-gamma-ATP by hotspot kinase assay relative to control

[22] = test system: Mast/stem cell growth factor receptor Kit (Homo sapiens), P10721 [D816H]; details: at 10 nM
Description: Inhibition of human c-KIT A loop exon 17 D816H single mutant at 10 nM using poly (Glu,Tyr) 4:1 as substrate in presence of 33P-gamma-ATP by hotspot kinase assay relative to control

[23] = test system: Mast/stem cell growth factor receptor Kit (Homo sapiens), P10721 [D816V]; details: at 10 nM
Description: Inhibition of human c-KIT A loop exon 17 D816V single mutant at 10 nM using poly (Glu,Tyr) 4:1 as substrate in presence of 33P-gamma-ATP by hotspot kinase assay relative to control

[24] = test system: Mast/stem cell growth factor receptor Kit (Homo sapiens), P10721 [D820E]; details: at 100 nM
Description: Inhibition of human c-KIT A loop exon 17 D820E single mutant at 100 nM using poly (Glu,Tyr) 4:1 as substrate in presence of 33P-gamma-ATP by hotspot kinase assay relative to control

[25] = test system: Mast/stem cell growth factor receptor Kit (Homo sapiens), P10721 [D820Y]; details: at 100 nM
Mast/stem cell growth factor receptor Kit (Homo sapiens), P10721 [D820Y], sequence (P10721 whole entry D820Y): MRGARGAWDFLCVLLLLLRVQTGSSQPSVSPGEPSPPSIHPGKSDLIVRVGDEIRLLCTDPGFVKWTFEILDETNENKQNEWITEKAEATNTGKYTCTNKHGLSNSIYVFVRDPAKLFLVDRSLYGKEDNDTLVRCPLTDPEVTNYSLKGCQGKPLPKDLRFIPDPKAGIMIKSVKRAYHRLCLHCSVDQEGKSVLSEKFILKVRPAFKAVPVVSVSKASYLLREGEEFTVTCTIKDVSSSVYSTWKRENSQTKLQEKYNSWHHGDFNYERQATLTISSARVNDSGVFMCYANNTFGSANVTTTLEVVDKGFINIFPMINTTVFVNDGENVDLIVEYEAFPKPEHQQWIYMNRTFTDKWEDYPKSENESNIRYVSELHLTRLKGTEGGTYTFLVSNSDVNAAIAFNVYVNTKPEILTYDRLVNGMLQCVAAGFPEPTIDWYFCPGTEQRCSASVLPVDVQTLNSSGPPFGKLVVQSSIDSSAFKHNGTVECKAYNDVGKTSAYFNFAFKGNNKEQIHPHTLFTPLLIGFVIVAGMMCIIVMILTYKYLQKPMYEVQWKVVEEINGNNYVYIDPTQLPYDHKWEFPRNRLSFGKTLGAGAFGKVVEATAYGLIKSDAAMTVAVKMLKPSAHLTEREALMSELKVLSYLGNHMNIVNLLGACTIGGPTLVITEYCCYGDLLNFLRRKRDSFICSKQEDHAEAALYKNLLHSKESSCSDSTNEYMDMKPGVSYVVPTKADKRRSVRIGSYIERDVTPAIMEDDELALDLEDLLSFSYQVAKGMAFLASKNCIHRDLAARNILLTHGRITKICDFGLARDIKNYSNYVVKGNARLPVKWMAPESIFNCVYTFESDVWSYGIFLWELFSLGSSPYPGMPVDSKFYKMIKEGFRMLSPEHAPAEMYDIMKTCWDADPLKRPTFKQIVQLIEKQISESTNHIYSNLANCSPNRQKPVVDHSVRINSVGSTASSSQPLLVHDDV
Description: Inhibition of human c-KIT A loop exon 17 D820Y single mutant at 100 nM using poly (Glu,Tyr) 4:1 as substrate in presence of 33P-gamma-ATP by hotspot kinase assay relative to control

Mast/stem cell growth factor receptor Kit (Homo sapiens), P10721 [D816H], sequence (P10721 whole entry D816H): as the sequence (P10721 whole entry D820Y) above, with D816H, Y820D counted along it
Mast/stem cell growth factor receptor Kit (Homo sapiens), P10721 [UNDEFINED MUTATION], sequence (P10721 whole entry, looked up, stated change not applied): as the sequence (P10721 whole entry D820Y) above, with Y820D counted along it
Mast/stem cell growth factor receptor Kit (Homo sapiens, UniProt P10721, T670I), sequence (P10721 26-976 T670I limits assumed): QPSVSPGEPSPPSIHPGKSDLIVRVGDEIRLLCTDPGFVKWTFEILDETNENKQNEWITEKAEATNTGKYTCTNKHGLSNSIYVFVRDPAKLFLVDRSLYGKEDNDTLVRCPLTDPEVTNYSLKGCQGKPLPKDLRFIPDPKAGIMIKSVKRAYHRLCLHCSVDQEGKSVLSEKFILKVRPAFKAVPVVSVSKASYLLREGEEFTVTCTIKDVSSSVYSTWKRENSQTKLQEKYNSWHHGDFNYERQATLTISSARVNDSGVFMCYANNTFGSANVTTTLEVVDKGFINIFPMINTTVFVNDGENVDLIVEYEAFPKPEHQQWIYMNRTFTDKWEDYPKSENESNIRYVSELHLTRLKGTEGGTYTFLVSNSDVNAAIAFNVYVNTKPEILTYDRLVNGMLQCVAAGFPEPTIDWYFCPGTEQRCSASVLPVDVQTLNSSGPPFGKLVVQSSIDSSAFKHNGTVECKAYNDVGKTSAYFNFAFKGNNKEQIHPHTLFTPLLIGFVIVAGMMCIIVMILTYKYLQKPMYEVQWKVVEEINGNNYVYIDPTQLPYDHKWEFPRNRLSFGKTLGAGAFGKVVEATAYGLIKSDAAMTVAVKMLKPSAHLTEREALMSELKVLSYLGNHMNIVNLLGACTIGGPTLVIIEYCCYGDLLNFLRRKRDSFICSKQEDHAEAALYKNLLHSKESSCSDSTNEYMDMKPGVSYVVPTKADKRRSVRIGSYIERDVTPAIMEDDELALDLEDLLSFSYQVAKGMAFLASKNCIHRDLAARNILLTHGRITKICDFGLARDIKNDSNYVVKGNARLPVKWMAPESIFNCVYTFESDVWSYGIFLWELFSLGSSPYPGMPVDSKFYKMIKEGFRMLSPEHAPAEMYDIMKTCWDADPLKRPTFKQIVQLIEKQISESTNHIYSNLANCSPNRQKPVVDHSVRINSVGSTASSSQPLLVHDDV
Mast/stem cell growth factor receptor Kit (Homo sapiens), P10721 [D820E], sequence (P10721 whole entry D820E): as the sequence (P10721 whole entry D820Y) above, with Y820E counted along it
Mast/stem cell growth factor receptor Kit (Homo sapiens, UniProt P10721, D820E), sequence (P10721 26-976 D820E limits assumed): as the sequence (P10721 26-976 T670I limits assumed) above, with I645T, D795E counted along it
Mast/stem cell growth factor receptor Kit (Homo sapiens, UniProt P10721, V559D/V654A), sequence (P10721 26-976 V559D/V654A limits assumed): as the sequence (P10721 26-976 T670I limits assumed) above, with V534D, V629A, I645T counted along it
Mast/stem cell growth factor receptor Kit (Homo sapiens, UniProt P10721, D816V), sequence (P10721 26-976 D816V limits assumed): as the sequence (P10721 26-976 T670I limits assumed) above, with I645T, D791V counted along it
Mast/stem cell growth factor receptor Kit (Homo sapiens), P10721 [V560G], sequence (P10721 whole entry V560G, the tested form may be a part): as the sequence (P10721 whole entry D820Y) above, with V560G, Y820D counted along it
Mast/stem cell growth factor receptor Kit (Homo sapiens), P10721 [V560G,D816V], sequence (P10721 whole entry V560G/D816V): as the sequence (P10721 whole entry D820Y) above, with V560G, D816V, Y820D counted along it
Mast/stem cell growth factor receptor Kit (Homo sapiens, UniProt P10721, V560G), sequence (P10721 26-976 V560G limits assumed): as the sequence (P10721 26-976 T670I limits assumed) above, with V535G, I645T counted along it
Mast/stem cell growth factor receptor Kit (Homo sapiens), P10721 [K642E], sequence (P10721 whole entry K642E, the tested form may be a part): as the sequence (P10721 whole entry D820Y) above, with K642E, Y820D counted along it
Mast/stem cell growth factor receptor Kit (Homo sapiens), P10721 [A829P], sequence (P10721 whole entry A829P): as the sequence (P10721 whole entry D820Y) above, with Y820D, A829P counted along it
Mast/stem cell growth factor receptor Kit (Homo sapiens), P10721 [V654A], sequence (P10721 whole entry V654A, the tested form may be a part): as the sequence (P10721 whole entry D820Y) above, with V654A, Y820D counted along it
Mast/stem cell growth factor receptor Kit (Homo sapiens), P10721 [D816V], sequence (P10721 whole entry D816V): as the sequence (P10721 whole entry D820Y) above, with D816V, Y820D counted along it
Mast/stem cell growth factor receptor Kit (Homo sapiens, UniProt P10721, D816V/V560G), sequence (P10721 26-976 V560G/D816V limits assumed): as the sequence (P10721 26-976 T670I limits assumed) above, with V535G, I645T, D791V counted along it

IC50 [1]: 0.98 nM
IC50 [2]: 82 nM
IC50 [3]: 92 nM
inhibition [4]: 95%
inhibition [5]: 43%
inhibition [6]: 82%
IC50 [7]: 1.66 nM
IC50 [8]: 8.56 nM
IC50 [9]: 0.81 nM
inhibition [10]: 99%
IC50 [11]: 102 nM
IC50 [12]: 9.27 nM
inhibition [13]: 63%
inhibition [16]: Active
inhibition [17]: Active
Cmax [18]: 562 ng/mL
AUC at 24 h [19]: 2800 ng·h/mL
clearance [20]: 20.2 mL/min/kg
inhibition [21]: 96%
inhibition [22]: 73%
inhibition [23]: 37%
inhibition [24]: 100%
inhibition [25]: 100%
Compound: CCc1cc(NC(=O)Nc2ccc(-c3cnc(Nc4cc(N5CCN(CC)CC5)ncn4)s3)cc2)no1
inhibition in vivo at 20 mg/kg (Mus musculus): 85%
Activity (GIST430): 59%
GI50 (GIST48): 2 nM
GI50 [14]: > 100 nM
GI50 [15]: > 100 nM
